The target in this experiment is T1, GST-Xa-hAAK1 (Homo sapiens, UniProt Q2M2I8).
T1 construct: GST (N); Factor Xa cleavage site (Xa) (internal); made in house
Put plainly: AAK1 Kinase Assay. The experiment is classed as biochemical. As to conditions: bacterially expressed GST-Xa-hAAK1 3.5 nM; ATP 22 μM; fluoresceinated peptide 1.5 μM; 3 hours at room temperature; Caliper LabChip 3000. The essentials: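 Bacterially expressed GST-Xa-hAAK1 (3.5 nM) phosphorylated 1.5 μM 5-FAM peptide with 22 μM ATP in Tris pH 7.4, MgCl2, DTT, 1.6% DMSO, 3 h at room temperature. EDTA-stopped; product separated electrophoretically on Caliper LabChip. IC50 from eleven concentrations by non-linear regression.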

T1 sequence (Q2M2I8 whole entry): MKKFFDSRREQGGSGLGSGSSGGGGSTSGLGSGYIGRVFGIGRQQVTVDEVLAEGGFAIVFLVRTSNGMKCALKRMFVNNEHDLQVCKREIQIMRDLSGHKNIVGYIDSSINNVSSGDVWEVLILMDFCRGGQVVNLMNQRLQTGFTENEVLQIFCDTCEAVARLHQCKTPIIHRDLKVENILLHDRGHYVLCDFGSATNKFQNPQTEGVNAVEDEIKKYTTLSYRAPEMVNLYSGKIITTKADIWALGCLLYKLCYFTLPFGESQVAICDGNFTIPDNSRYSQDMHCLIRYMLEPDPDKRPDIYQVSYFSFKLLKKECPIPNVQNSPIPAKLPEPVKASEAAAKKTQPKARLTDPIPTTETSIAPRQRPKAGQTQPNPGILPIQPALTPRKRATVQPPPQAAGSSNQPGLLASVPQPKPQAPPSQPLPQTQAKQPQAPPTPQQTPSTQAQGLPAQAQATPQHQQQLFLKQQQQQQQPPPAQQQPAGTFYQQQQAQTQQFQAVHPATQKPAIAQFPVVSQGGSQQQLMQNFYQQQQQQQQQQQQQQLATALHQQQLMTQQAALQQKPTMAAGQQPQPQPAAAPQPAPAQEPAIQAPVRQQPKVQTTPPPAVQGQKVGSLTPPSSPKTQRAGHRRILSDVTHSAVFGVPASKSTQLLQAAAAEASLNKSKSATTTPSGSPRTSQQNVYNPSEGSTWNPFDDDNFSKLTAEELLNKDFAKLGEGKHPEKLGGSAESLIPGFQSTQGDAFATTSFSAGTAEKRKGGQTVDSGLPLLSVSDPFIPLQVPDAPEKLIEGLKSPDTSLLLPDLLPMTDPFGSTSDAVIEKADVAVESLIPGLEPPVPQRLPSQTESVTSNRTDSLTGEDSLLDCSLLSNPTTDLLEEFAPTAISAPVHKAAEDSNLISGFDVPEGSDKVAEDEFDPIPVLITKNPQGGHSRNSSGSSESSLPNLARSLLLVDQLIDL

In general, IC50 refers to the concentration that gives 50% inhibition. On to `COCc1nc2c(-c3ccc(OC[C@@](C)(N)CC(C)C)c(C(F)(F)F)c3)ccnc2[nH]1` [Example 295, (S)-1-(4-(2-(methoxymethyl)-3H-imidazo[4,5-b]pyridin-7-yl)-2-(trifluoromethyl)phenoxy)-2,4-dimethylpentan-2-amine], for which the half-maximal inhibitory concentration (IC50) was 22 nM. With `CC(C)C[C@](C)(N)COc1ccc(-c2ccnc3nccnc23)cc1F` [Example 253, (S)-1-(2-fluoro-4-(pyrido[2,3-b]pyrazin-8-yl)phenoxy)-2,4-dimethylpentan-2-amine] the figure was 537 nM; with `Cc1cc(-c2ccnc3c2C(=O)NC3)ccc1OC[C@@](C)(N)CC(C)C` [Example 428, (S)-4-(4-((2-amino-2,4-dimethylpentyl)oxy)-3-methylphenyl)-6,7-dihydro-5H-pyrrolo[3,4-b]pyridin-5-one], 13 nM. With `CC(C)C[C@](C)(N)COc1ccc(-c2ccnc(NC3CCCOC3)c2)cc1C(F)(F)F` (single isomer, unassigned) [Example 477] the figure was 50 nM; with `CC(C)C[C@](C)(N)COc1ccc(-c2ccnc(NC(=O)CC3CCCCCC3)c2)cc1C(F)(F)F` [Example 399, (S)—N-(4-(4-((2-amino-2,4-dimethylpentyl)oxy)-3-(trifluoromethyl)phenyl)pyridin-2-yl)-2-cycloheptylacetamide], 5.9 nM; with `CC(C)C[C@](C)(N)COc1ccc(-c2ccnc(NC(=O)C3=NNC(=O)CC3)c2)cc1C(F)(F)F` [Example 407, (S)—N-(4-(4-((2-amino-2,4-dimethylpentyl)oxy)-3-(trifluoromethyl)phenyl)pyridin-2-yl)-6-oxo-1,4,5,6-tetrahydropyridazine-3-carboxamide], 0.8 nM.

Consider `CC(C)C[C@](C)(N)COc1ccc(-c2cc(N)nc3ccnn23)c(F)c1` [Example 455, (S)-7-(4-((2-amino-2,4-dimethylpentyl)oxy)-2-fluorophenyl)pyrazolo[1,5-a]pyrimidin-5-amine], for which the concentration for half-maximal inhibition (IC50) was 391 nM. Take `Cc1cc(-c2ccnn3cc(C(F)(F)F)nc23)cnc1OC[C@](C)(N)CC(C)C` [Example 504, (R)-2,4-dimethyl-1-((3-methyl-5-(2-(trifluoromethyl)imidazo[1,2-b]pyridazin-8-yl)pyridin-2-yl)oxy)pentan-2-amine]: the half-inhibitory concentration (IC50) was 606 nM. In the case of `Cc1cc(-c2ccc(OC[C@@](C)(N)CC(C)C)c(Cl)c2)n2nc(C)cc2n1` [Example 459, (S)-1-(2-chloro-4-(2,5-dimethylpyrazolo[1,5-a]pyrimidin-7-yl)phenoxy)-2,4-dimethylpentan-2-amine] it was 1270 nM; in that of `CC(C)C[C@](C)(N)COc1ccc(-c2ccnc3c2C(=O)NC3)cc1F` [Example 416, (S)-4-(4-((2-amino-2,4-dimethylpentyl)oxy)-3-fluorophenyl)-6,7-dihydro-5H-pyrrolo[3,4-b]pyridin-5-one], 94 nM. On to `CC(C)C[C@](C)(N)COc1ccc(-c2ccnc3cc[nH]c23)cc1C#N` [Example 421, (S)-2-((2-amino-2,4-dimethylpentyl)oxy)-5-(1H-pyrrolo[3,2-b]pyridin-7-yl)benzonitrile], for which the IC50 was found to be 0.5 nM. In the case of `Cc1cc(-c2ccnn3cc(C(F)(F)F)nc23)ccc1OC[C@@](C)(N)CC(C)C` [Example 500, (S)-2,4-dimethyl-1-(2-methyl-4-(2-(trifluoromethyl)imidazo[1,2-b]pyridazin-8-yl)phenoxy)pentan-2-amine] it was 30 nM; in that of `CC(C)C[C@](C)(N)COc1ccc(-c2ccnc(NC(=O)c3cnccn3)c2)cc1C(F)(F)F` [Example 404, (S)—N-(4-(4-((2-amino-2,4-dimethylpentyl)oxy)-3-(trifluoromethyl)phenyl)pyridin-2-yl)pyrazine-2-carboxamide], 0.7 nM. In the case of `Cc1csc(Nc2nccc(-c3ccc(OC[C@@](C)(N)CC(C)C)c(C)c3)n2)n1` [Example 381, (S)—N-(4-(4-((2-amino-2,4-dimethylpentyl)oxy)-3-methylphenyl)pyrimidin-2-yl)-4-methylthiazol-2-amine] it was 1.5 nM. `CC(C)CC(N)(CO)COc1cnc(-c2ccnc(C(F)F)c2)cc1C(F)F` (centres unmarked) [Example 277, 2-amino-2-(((2′,4-bis(difluoromethyl)-[2,4′-bipyridin]-5-yl)oxy)methyl)-4-methylpentan-1-ol]: the IC50 worked out at 1.8 nM. In the case of `CC(C)C[C@](C)(N)COc1ccc(-c2ccnc(Nc3nccs3)c2)cc1C(F)(F)F` [Example 256, (S)—N-(4-(4-((2-amino-2,4-dimethylpentyl)oxy)-3-(trifluoromethyl)phenyl)pyridin-2-yl)thiazol-2-amine] it was 0.82 nM; in that of `CC(C)C[C@](C)(N)COc1ccc(-c2ccnc3ccnn23)cc1C(F)F` [Example 351, (S)-1-(2-(difluoromethyl)-4-(pyrazolo[1,5-a]pyrimidin-7-yl)phenoxy)-2,4-dimethylpentan-2-amine], 0.4 nM. With `CC(C)C[C@](C)(N)COc1ccc(-c2ncnc3c2ccn3C)cc1C#N` [Example 364, (S)-2-((2-amino-2,4-dimethylpentyl)oxy)-5-(7-methyl-7H-pyrrolo[2,3-d]pyrimidin-4-yl)benzonitrile] the figure was 24 nM. With `Cc1cc(-c2ccc(OC[C@@](C)(N)CC(C)C)c3ncsc23)ccn1` [Example 267, (S)-2,4-dimethyl-1-((7-(2-methylpyridin-4-yl)benzo[d]thiazol-4-yl)oxy)pentan-2-amine] the figure was 362 nM; with `CC(C)C[C@](C)(N)COc1ccc(-c2ccnc(NC(=O)c3nccs3)c2)cc1C(F)(F)F` [Example 258, (S)—N-(4-(4-((2-amino-2,4-dimethylpentyl)oxy)-3-(trifluoromethyl)phenyl)pyridin-2-yl)thiazole-2-carboxamide], 0.47 nM; with `CC(C)C[C@](C)(N)COc1ccc(-c2ccnc3c2CC(=O)N3)cc1C(F)(F)F` [Example 303, (S)-4-(4-((2-amino-2,4-dimethylpentyl)oxy)-3-(trifluoromethyl)phenyl)-1H-pyrrolo[2,3-b]pyridin-2(3H)-one], 0.6 nM. For the compound `CC(C)C[C@](C)(N)COc1ccc(-c2cc(NC3CCCOC3)ncn2)cc1C(F)(F)F` (stereo partly drawn) [Example 358, 6-(4-(((S)-2-amino-2,4-dimethylpentyl)oxy)-3-(trifluoromethyl)phenyl)-N-(tetrahydro-2H-pyran-3-yl)pyrimidin-4-amine], the IC50 is 385 nM. With `Cc1cn2nc(Cl)cc(-c3ccc(OC[C@@](C)(N)CC(C)C)c(C(F)(F)F)c3)c2n1` [Example 495, (S)-1-(4-(6-chloro-2-methylimidazo [1,2-b]pyridazin-8-yl)-2-(trifluoromethyl)phenoxy)-2,4-dimethylpentan-2-amine] the figure was 66 nM; with `Cc1nc2c(-c3ccc(OC[C@@](C)(N)CC(C)C)c(C#N)c3)ncnc2s1` [Example 271, (S)-2-((2-amino-2,4-dimethylpentyl)oxy)-5-(2-methylthiazolo[5,4-d]pyrimidin-7-yl)benzonitrile], 4.1 nM. In the case of `CC(C)C[C@](C)(N)COc1ccc(-c2cnn3cccnc23)cc1Cl` [Example 332] it was 94 nM; in that of `Cc1nc2c(-c3ccc(OC[C@@](C)(N)CC(C)C)c(C(F)(F)F)c3)ncnc2s1` [Example 270, (S)-2,4-dimethyl-1-(4-(2-methylthiazolo[5,4-d]pyrimidin-7-yl)-2-(trifluoromethyl)phenoxy)pentan-2-amine], 8.4 nM; in that of `CC(C)C[C@](C)(N)COc1ccc(-c2ccnn3ccnc23)cc1` [Example 281, (S)-1-(4-(imidazo[1,2-b]pyridazin-8-yl)phenoxy)-2,4-dimethylpentan-2-amine], 3.4 nM. In the case of `CC(C)C[C@](C)(N)COc1ccc(-c2ccnc3[nH]c(N)nc23)cc1C(F)(F)F` [Example 255, (S)-7-(4-((2-amino-2,4-dimethylpentyl)oxy)-3-(trifluoromethyl)phenyl)-3H-imidazo [4,5-b]pyridin-2-amine] it was 42 nM; in that of `COC(=O)Nc1cc(-c2ccc(OC[C@@](C)(N)CC(C)C)c3ncsc23)ccn1` [Example 269, (S)-methyl (4-(4-((2-amino-2,4-dimethylpentyl)oxy)benzo[d]thiazol-7-yl)pyridin-2-yl)carbamate], 3.4 nM.

Turning to `CC(C)C[C@](C)(N)COc1ccc(-c2ccnc(NC(=O)CC3CCCCC3)c2)cc1C(F)(F)F` [Example 394, (S)—N-(4-(4-((2-amino-2,4-dimethylpentyl)oxy)-3-(trifluoromethyl)phenyl)pyridin-2-yl)-2-cyclohexylacetamide], the IC50 worked out at 2 nM. Regarding `CC(C)C[C@](C)(N)COc1ccc(-c2ccnc(NC(=O)c3cnn[nH]3)c2)cc1C(F)(F)F` [Example 406, (S)—N-(4-(4-((2-amino-2,4-dimethylpentyl)oxy)-3-(trifluoromethyl)phenyl)pyridin-2-yl)-1H-1,2,3-triazole-5-carboxamide], the IC50 turned out to be 0.3 nM. In the case of `CC(C)C[C@](C)(N)COc1ccc(-c2ccnn3ccnc23)cc1C#N` [Example 287, (S)-2-((2-amino-2,4-dimethylpentyl)oxy)-5-(imidazo[1,2-b]pyridazin-8-yl)benzonitrile] it was 0.5 nM. With `CC(C)C[C@](C)(N)COc1ccc(-c2ccnc(NC3CCNCC3)c2)cc1C#N` [Example 466, (S)-2-(2-amino-2,4-dimethylpentyloxy)-5-(2-(piperidin-4-ylamino)pyridin-4-yl) benzonitrile], the half-maximal inhibitory concentration (IC50) turned out to be 64 nM. For the compound `CC(C)C[C@](C)(N)COc1ccc(-c2ccnc3ccn(C)c23)cc1C#N` [Example 423, (S)-2-((2-amino-2,4-dimethylpentyl)oxy)-5-(1-methyl-1H-pyrrolo[3,2-b]pyridin-7-yl)benzonitrile], the 50% inhibitory concentration (IC50) was 862 nM.

For the compound `CC(C)C[C@](C)(N)COc1ccc(-c2ccnc3ccnn23)cc1CF` [Example 353, (S)-1-(2-(fluoromethyl)-4-(pyrazolo[1,5-a]pyrimidin-7-yl)phenoxy)-2,4-dimethylpentan-2-amine], the IC50 came out at 0.2 nM.

For the origin of these results see US10246469B2, “Biaryl kinase inhibitors” (BRISTOL-MYERS SQUIBB COMPANY, priority 2015, dated 2019).
